Source: patent US20250255867A1 (Kadmon Corporation, LLC, priority 2022, published 2025)

Protocol: All responses were assessed by the investigators.
Reported Adverse Events. […] All-cause mortality data collected during the study were assessed for all enrolled participants. Disease progression related death was not reported as AE.
Number of Participants With Treatment-emergent Adverse Events (TEAEs), and Treatment-emergent Serious Adverse Events (TESAEs). […] TEAEs included both SAEs and non-SAEs. […] Analysis was performed on safety population which included all participants who received at least 1 dose of study medication.

## CC(C)NC(=O)COc1cccc(-c2nc(Nc3ccc4[nH]ncc4c3)c3ccccc3n2)c1 [Belumosudil, 2-{3-[4-(1H-indazol-5-ylamino)-2-quinazolinyl]phenoxy}-N-(propan-2-yl) acetamide]
Cohort 2 200 mg BID
  Urinary retention: # Events: 2
  Urinary retention: Affected/At Risk: 1/16
  Urinary retention: Affected/At Risk (%): (6.25%)
  Urinary tract infection: # Events: 2
  Urinary tract infection: Affected/At Risk: 2/16
  Urinary tract infection: Affected/At Risk (%): (12.5%)
  Urinary tract pain: # Events: 1
  Urinary tract pain: Affected/At Risk: 1/16
  Urinary tract pain: Affected/At Risk (%): (6.25%)
  Urine output decreased: # Events: 1
  Urine output decreased: Affected/At Risk: 1/16
  Urine output decreased: Affected/At Risk (%): (6.25%)
  Vascular access complication: # Events: 1
  Vascular access complication: Affected/At Risk: 1/16
  Vascular access complication: Affected/At Risk (%): (6.25%)
  Vertigo: # Events: 0
  Vertigo: Affected/At Risk: 0/16
  Vertigo: Affected/At Risk (%): (0%)
  Vision blurred: # Events: 2
  Vision blurred: Affected/At Risk: 2/16
  Vision blurred: Affected/At Risk (%): (12.5%)
  Vomiting: # Events: 3
  Vomiting: Affected/At Risk: 3/16
  Vomiting: Affected/At Risk (%): (18.75%)
  Weight decreased: # Events: 0
  Weight decreased: Affected/At Risk: 0/16
  Weight decreased: Affected/At Risk (%): (0%)
  Weight increased: # Events: 2
  Weight increased: Affected/At Risk: 1/16
  Weight increased: Affected/At Risk (%): (6.25%)
  White blood cell count decreased: # Events: 0
  White blood cell count decreased: Affected/At Risk: 0/16
  White blood cell count decreased: Affected/At Risk (%): (0%)
Cohort 2 200 mg BID n=16
  ALT/AST increased all grade, No.: 5
  ALT/AST increased grade ≥3, No.: 2
  Anemia grade ≥3, No.: 1
  Any AE, No. of patients: 16
  Cough all grade, No.: 4
  Death, No.: 0
  Diarrhea all grade, No.: 5
  Drug-related AE, No.: 8
  Drug-related SAE, No.: 0
  Dyspnea all grade, No.: 6
  Dyspnea grade ≥3, No.: 2
  Fatigue all grade, No.: 3
  Grade ≥3 AE, No.: 10
  Headache all grade, No.: 3
  Hyperglycemia grade ≥3, No.: 0
  Hypertension all grade, No.: 2
  Hypoxia grade ≥3, No.: 1
  Lung infection or pneumonia grade ≥3, No.: 2
  Nausea all grade, No.: 4
  Peripheral edema all grade, No.: 4
  SAE, No.: 6
  URI all grade, No.: 9
Cohort 3
  Patients with relative dose intensity >95%: 71%
Cohort 3 400 mg QD
  Abdominal distension: # Events: 1
  Abdominal distension: Affected/At Risk: 1/21
  Abdominal distension: Affected/At Risk (%): (4.76%)
  Abdominal pain upper: # Events: 0
  Abdominal pain upper: Affected/At Risk: 0/21
  Abdominal pain upper: Affected/At Risk (%): (0%)
  Abdominal pain: # Events: 6
  Abdominal pain: Affected/At Risk: 4/21
  Abdominal pain: Affected/At Risk (%): (19.05%)
  Actinic keratosis: # Events: 1
  Actinic keratosis: Affected/At Risk: 1/21
  Actinic keratosis: Affected/At Risk (%): (4.76%)
  Acute kidney injury: # Events: 6
  Acute kidney injury: Affected/At Risk: 2/21
  Acute kidney injury: Affected/At Risk (%): (9.52%)
  Acute respiratory distress syndrome: # Events: 0
  Acute respiratory distress syndrome: Affected/At Risk: 0/21
  Acute respiratory distress syndrome: Affected/At Risk (%): (0%)
  Adrenal insufficiency: # Events: 0
  Adrenal insufficiency: Affected/At Risk: 0/21
  Adrenal insufficiency: Affected/At Risk (%): (0%)
  Alanine aminotransferase increased: # Events: 2
  Alanine aminotransferase increased: Affected/At Risk: 2/21
  Alanine aminotransferase increased: Affected/At Risk (%): (9.52%)
  Anaemia: # Events: 0
  Anaemia: Affected/At Risk: 0/21
  Anaemia: Affected/At Risk (%): (0%)
  Anal incontinence: # Events: 0
  Anal incontinence: Affected/At Risk: 0/21
  Anal incontinence: Affected/At Risk (%): (0%)
  Anxiety: # Events: 3
  Anxiety: Affected/At Risk: 3/21
  Anxiety: Affected/At Risk (%): (14.29%)
  Arthralgia: # Events: 6
  Arthralgia: Affected/At Risk: 5/21
  Arthralgia: Affected/At Risk (%): (23.81%)
  Aspartate aminotransferase increased: # Events: 1
  Aspartate aminotransferase increased: Affected/At Risk: 1/21
  Aspartate aminotransferase increased: Affected/At Risk (%): (4.76%)
  Asthenia: # Events: 0
  Asthenia: Affected/At Risk: 0/21
  Asthenia: Affected/At Risk (%): (0%)
  Atelectasis: # Events: 0
  Atelectasis: Affected/At Risk: 0/21
  Atelectasis: Affected/At Risk (%): (0%)
  Back pain: # Events: 1
  Back pain: Affected/At Risk: 1/21
  Back pain: Affected/At Risk (%): (4.76%)
  Balance disorder: # Events: 0
  Balance disorder: Affected/At Risk: 0/21
  Balance disorder: Affected/At Risk (%): (0%)
  Basal cell carcinoma: # Events: 0
  Basal cell carcinoma: Affected/At Risk: 0/21
  Basal cell carcinoma: Affected/At Risk (%): (0%)
  Benign prostatic hyperplasia: # Events: 0
  Benign prostatic hyperplasia: Affected/At Risk: 0/21
  Benign prostatic hyperplasia: Affected/At Risk (%): (0%)
  Blepharitis: # Events: 2
  Blepharitis: Affected/At Risk: 1/21
  Blepharitis: Affected/At Risk (%): (4.76%)
  Blister: # Events: 1
  Blister: Affected/At Risk: 1/21
  Blister: Affected/At Risk (%): (4.76%)
  Blood alkaline phosphatase increased: # Events: 0
  Blood alkaline phosphatase increased: Affected/At Risk: 0/21
  Blood alkaline phosphatase increased: Affected/At Risk (%): (0%)
  Blood chloride decreased: # Events: 0
  Blood chloride decreased: Affected/At Risk: 0/21
  Blood chloride decreased: Affected/At Risk (%): (0%)
  Blood cholesterol increased: # Events: 1
  Blood cholesterol increased: Affected/At Risk: 1/21
  Blood cholesterol increased: Affected/At Risk (%): (4.76%)
  Blood creatine increased: # Events: 0
  Blood creatine increased: Affected/At Risk: 0/21
  Blood creatine increased: Affected/At Risk (%): (0%)
  Blood creatine phosphokinase increased: # Events: 0
  Blood creatine phosphokinase increased: Affected/At Risk: 0/21
  Blood creatine phosphokinase increased: Affected/At Risk (%): (0%)
  Blood creatinine increased: # Events: 2
  Blood creatinine increased: Affected/At Risk: 2/21
  Blood creatinine increased: Affected/At Risk (%): (9.52%)
